From patent publication US9163007B2, “5-substituted indazoles as kinase inhibitors” (AbbVie Inc., priority 2007, dated 2015)
pEC50: −log10 of the molar value. Where two headings read alike, the source gives them in different places.

Assays:
[1] = tested on: HCT-116 cells; test: AlamarBlue Cell Viability Assays; format: cell-based; settings: Homo sapiens, treated 72 hours
Description: AlamarBlue Cell Viability Assays
HCT-116 cells (3,000/well; 96-well format) were treated for 72 hours with increasing concentrations of compounds (0.01-30 μM in half-log increments). The cells were then incubated in fresh media with 10% AlamarBlue reagent (Invitrogen #DAL1100). AlamarBlue reactions were incubated according to the manufacturer's instructions (approximately 4 hours) and then analyzed using an fmax fluorescence microplate reader (Molecular Devices) using excitation/emission wavelengths of 544/595 nm. Data were analyzed using SOFTmax PRO software provided by the manufacturer.

[2] = tested on: phospho-MCM2 Ser53 in HCT-116 cells; test: Phospho-MCM2 ELISA; format: cell-based; settings: Homo sapiens, treated 6 hours
Description: HCT-116 cells (20,000/well; 96-well format) were treated for 6 hours with increasing concentrations of compounds (0.01-10 μM in half-log increments). After removing the medium/inhibitor, the cells were frozen for 5 minutes and treated on ice with 20 μL of lysis buffer (Invitrogen #FNN0011) for 30 minutes. 80 μL of cold 2% BSA (in PBS) were then added to each well before transferring 80 μL to MCM2 antibody-coated plates (Bethyl #A300-122A, lot A300-122A-1). The plates were incubated overnight at 4° C., washed, and then incubated with the sandwich antibody (1:100 rabbit anti-human phospho-MCM2 Ser53; Bethyl #A300-756A, lot A300-756A-2) for 2 hours at room temperature. After another series of washes the samples are incubated for 1 hour with detection antibody (XSA-grade goat anti-rabbit-HRP, KPL #074-15-061, lot 50884, diluted to 2 μg/mL in 2% BSA). Plates were washed, developed using luminescence substrate (SuperSignal Pico for ELISA, Pierce #37069, Lot. HB101408), and read on a Molecular Devices M5 luminometer.

[3] = biological target: Cdc7/Dbf4 (Homo sapiens (Human), UniProt O00311); test: Cdc7 Inhibition Assay; format: biochemical;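 also: reaction mixtures incubated 30 min on streptavidin-coated plates, then quantified by scintillation counting, with inhibition curves fitted by non-linear regression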
Cdc7/Dbf4, sequence (O00311 whole entry): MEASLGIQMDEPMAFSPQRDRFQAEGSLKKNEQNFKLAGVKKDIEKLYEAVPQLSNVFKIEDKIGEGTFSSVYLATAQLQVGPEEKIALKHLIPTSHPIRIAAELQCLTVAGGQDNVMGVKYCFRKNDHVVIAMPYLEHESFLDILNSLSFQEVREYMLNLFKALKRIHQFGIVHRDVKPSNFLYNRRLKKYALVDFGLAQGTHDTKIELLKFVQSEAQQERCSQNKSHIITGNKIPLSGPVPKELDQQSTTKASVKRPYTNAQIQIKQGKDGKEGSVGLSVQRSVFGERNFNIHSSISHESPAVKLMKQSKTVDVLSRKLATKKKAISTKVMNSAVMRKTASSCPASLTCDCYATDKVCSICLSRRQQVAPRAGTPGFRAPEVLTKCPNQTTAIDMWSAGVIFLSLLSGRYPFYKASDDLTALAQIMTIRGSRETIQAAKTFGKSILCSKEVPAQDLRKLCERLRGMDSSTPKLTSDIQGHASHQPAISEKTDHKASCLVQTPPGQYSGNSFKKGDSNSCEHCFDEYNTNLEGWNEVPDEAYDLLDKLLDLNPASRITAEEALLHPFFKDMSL
Cdc7/Dbf4, sequence (Q9UBU7 whole entry partner): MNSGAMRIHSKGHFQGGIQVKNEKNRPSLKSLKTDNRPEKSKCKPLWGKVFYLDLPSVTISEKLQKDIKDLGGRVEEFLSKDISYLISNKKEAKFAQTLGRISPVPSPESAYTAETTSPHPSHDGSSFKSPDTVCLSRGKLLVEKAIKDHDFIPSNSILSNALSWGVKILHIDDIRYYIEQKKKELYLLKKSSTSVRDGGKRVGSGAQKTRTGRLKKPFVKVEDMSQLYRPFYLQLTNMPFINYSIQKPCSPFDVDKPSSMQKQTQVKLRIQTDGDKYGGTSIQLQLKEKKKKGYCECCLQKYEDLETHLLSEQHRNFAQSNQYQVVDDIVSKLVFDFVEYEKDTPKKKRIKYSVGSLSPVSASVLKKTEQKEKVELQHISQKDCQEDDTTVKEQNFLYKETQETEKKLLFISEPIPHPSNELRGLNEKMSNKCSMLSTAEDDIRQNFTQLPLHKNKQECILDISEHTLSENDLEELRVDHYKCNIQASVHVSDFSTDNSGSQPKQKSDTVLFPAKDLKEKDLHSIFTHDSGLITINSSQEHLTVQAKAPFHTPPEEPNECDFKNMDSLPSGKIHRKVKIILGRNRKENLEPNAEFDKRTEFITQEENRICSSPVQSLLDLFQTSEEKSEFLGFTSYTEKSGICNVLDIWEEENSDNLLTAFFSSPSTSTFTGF
Description: The reactions were incubated for 30 minutes on streptavidin-coated plates, washed, and quantified using a TopCount scintillation plate reader (Packard). IC50 values are determined via non-linear regression fitting of the data.

[4] = 11 data point, read-out: Ki (μM) 11 data point
[5] = 6 data point, read-out: Ki (μM) 6 data point

SMILES: c1ccc(Cn2cc(-c3ccc4[nH]nc(-c5cn(Cc6ccccc6)nn5)c4c3)nn2)cc1 [Example 60, 3,5-bis(1-benzyl-1H-1,2,3-triazol-4-yl)-1H-indazole]
- pEC50 [1]: 6.84
- pEC50 [2]: < 5.00
- Ki [3, 4]: 0.0556 µM

SMILES: c1ccc(Cn2cc(-c3ccc4[nH]nc(-c5ccccc5)c4c3)nn2)cc1 [Example 61, 5-(1-benzyl-1H-1,2,3-triazol-4-yl)-3-phenyl-1H-indazole]
- pEC50 [1]: 5.40
- pEC50 [2]: 5.06
- Ki [3, 4]: 0.0077 µM

SMILES: Nc1n[nH]c2ccc(-c3cn(Cc4ccccc4)nn3)cc12 [Example 62, 5-(1-benzyl-1H-1,2,3-triazol-4-yl)-1H-indazol-3-amine]
- pEC50 [1]: 5.34
- pEC50 [2]: < 5.00

SMILES: COCC(=O)Nc1n[nH]c2ccc(-c3cn(Cc4ccccc4)nn3)cc12 [Example 64, N-[5-(1-benzyl-1H-1,2,3-triazol-4-yl)-1H-indazol-3-yl]-2-methoxyacetamide]
- pEC50 [1]: 6.37
- pEC50 [2]: < 5.00
- Ki [3, 4]: 0.015 µM

SMILES: O=C(Nc1n[nH]c2ccc(-c3cn(Cc4ccccc4)nn3)cc12)c1ccccc1 [Example 73, N-[5-(1-benzyl-1H-1,2,3-triazol-4-yl)-1H-indazol-3-yl]benzamide]
- pEC50 [1]: 6.12
- pEC50 [2]: 5.71

SMILES: c1ccc(Cn2nnc(-c3ccc4[nH]ncc4c3)c2-c2ccccc2)cc1 [Example 87, 5-(1-benzyl-5-phenyl-1H-1,2,3-triazol-4-yl)-1H-indazole]
- pEC50 [1]: 4.96
- pEC50 [2]: 5.23
- Ki [3, 4]: 0.000601 µM

SMILES: Nc1n[nH]c2ccc(-c3nnn(Cc4ccccc4)c3C3CC3)cc12 [Example 89, 5-(1-benzyl-5-cyclopropyl-1H-1,2,3-triazol-4-yl)-1H-indazol-3-amine]
- pEC50 [1]: 5.26
- pEC50 [2]: < 5.00
- Ki [3, 4]: 0.035 µM

SMILES: Nc1n[nH]c2ccc(-c3nnn(Cc4ccccc4)c3-c3ccccc3)cc12 [Example 102, 5-(1-benzyl-5-phenyl-1H-1,2,3-triazol-4-yl)-1H-indazol-3-amine]
- pEC50 [1]: 5.50
- pEC50 [2]: 5.50

SMILES: Cc1c(-c2ccc3[nH]nc(N)c3c2)nnn1Cc1ccccc1 [Example 123, 5-(1-benzyl-5-methyl-1H-1,2,3-triazol-4-yl)-1H-indazol-3-amine]
- pEC50 [1]: 5.41
- pEC50 [2]: < 5.00

SMILES: Nc1n[nH]c2ccc(-c3nnn(Cc4ccccc4)c3-c3ccc(F)cc3)cc12 [Example 151, 5-[1-benzyl-5-(4-fluorophenyl)-1H-1,2,3-triazol-4-yl]-1H-indazol-3-amine]
- pEC50 [1]: 5.06
- pEC50 [2]: 5.43

SMILES: Cc1ccccc1-c1c(-c2ccc3[nH]nc(C)c3c2)nnn1Cc1ccccc1 [Example 162, 5-[1-benzyl-5-(2-methylphenyl)-1H-1,2,3-triazol-4-yl]-3-methyl-1H-indazole]
- pEC50 [1]: 5.84
- pEC50 [2]: 5.24
- Ki [3, 4]: 0.00225 µM

SMILES: Cc1ccccc1-c1c(-c2ccc3[nH]nc(N)c3c2)nnn1Cc1ccccc1 [Example 163, 5-[1-benzyl-5-(2-methylphenyl)-1H-1,2,3-triazol-4-yl]-1H-indazol-3-amine]
- pEC50 [1]: 6.03
- pEC50 [2]: 5.03

SMILES: Fc1ccc(-c2c(-c3ccc4[nH]ncc4c3)nnn2CC2CCOCC2)cc1 [Example 167, 5-[5-(4-fluorophenyl)-1-(tetrahydro-2H-pyran-4-ylmethyl)-1H-1,2,3-triazol-4-yl]-1H-indazole]
- pEC50 [1]: 4.74
- pEC50 [2]: 5.37
- Ki [3, 4]: 0.00105 µM

SMILES: CN(C)c1ccc(-c2c(-c3ccc4[nH]nc(N)c4c3)nnn2Cc2ccccc2)cc1 [Example 185, 5-{1-benzyl-5-[4-(dimethylamino)phenyl]-1H-1,2,3-triazol-4-yl}-1H-indazol-3-amine]
- pEC50 [1]: 4.65
- pEC50 [2]: 5.26
- Ki [3, 4]: 0.0004 µM

SMILES: Cn1cc(-c2c(-c3ccc4[nH]nc(N)c4c3)nnn2Cc2ccccc2)cn1 [Example 189, 5-[1-benzyl-5-(1-methyl-1H-pyrazol-4-yl)-1H-1,2,3-triazol-4-yl]-1H-indazol-3-amine]
- pEC50 [1]: 4.72
- pEC50 [2]: 5.27
- Ki [3, 4]: 0.0019 µM

SMILES: Nc1n[nH]c2ccc(-c3nnn(Cc4ccccc4)c3-c3cccc(N4CCOCC4)c3)cc12 [Example 194, 5-[1-benzyl-5-(3-morpholin-4-ylphenyl)-1H-1,2,3-triazol-4-yl]-1H-indazol-3-amine]
- pEC50 [1]: 5.36
- pEC50 [2]: < 5.00
- Ki [3, 4]: 0.068 µM

SMILES: O=C(Nc1n[nH]c2ccc(-c3nnn(Cc4ccccc4)c3-c3ccccc3)cc12)c1ccccc1 [Example 198, N-[5-(1-benzyl-5-phenyl-1H-1,2,3-triazol-4-yl)-1H-indazol-3-yl]benzamide]
- pEC50 [1]: 5.54
- pEC50 [2]: 5.38
- Ki [3, 5]: 0.0008 µM
- Ki [3, 4]: 0.0009 µM

SMILES: O=C(Nc1nn(C(=O)c2ccccc2)c2ccc(-c3nnn(Cc4ccccc4)c3C3CC3)cc12)c1ccccc1 [Example 204, N-[1-benzoyl-5-(1-benzyl-5-cyclopropyl-1H-1,2,3-triazol-4-yl)-1H-indazol-3-yl]benzamide]
- pEC50 [1]: 6.89
- pEC50 [2]: 5.21
- Ki [3, 4]: 0.11 µM

SMILES: O=C(Nc1n[nH]c2ccc(-c3nnn(Cc4ccccc4)c3C3CC3)cc12)c1cccc(F)c1 [Example 205, N-[5-(1-benzyl-5-cyclopropyl-1H-1,2,3-triazol-4-yl)-1H-indazol-3-yl]-3-fluorobenzamide]
- pEC50 [1]: 6.23
- pEC50 [2]: < 5.00
- Ki [3, 5]: 0.0009 µM
- Ki [3, 4]: 0.0024 µM

SMILES: Clc1ccccc1CNc1n[nH]c2ccc(-c3nnn(Cc4ccccc4)c3C3CC3)cc12 [Example 222, 5-(1-benzyl-5-cyclopropyl-1H-1,2,3-triazol-4-yl)-N-(2-chlorobenzyl)-1H-indazol-3-amine]
- pEC50 [1]: 5.68
- pEC50 [2]: < 5.00
- Ki [3, 4]: 0.093 µM

SMILES: O=C(Nc1n[nH]c2ccc(-c3nnn(Cc4ccccc4)c3C3CC3)cc12)c1cccc(Cl)c1 [Example 224, N-[5-(1-benzyl-5-cyclopropyl-1H-1,2,3-triazol-4-yl)-1H-indazol-3-yl]-3-chlorobenzamide]
- pEC50 [1]: 5.62
- pEC50 [2]: < 5.00

SMILES: Clc1ccc(CNc2n[nH]c3ccc(-c4nnn(Cc5ccccc5)c4C4CC4)cc23)cc1 [Example 227, 5-(1-benzyl-5-cyclopropyl-1H-1,2,3-triazol-4-yl)-N-(4-chlorobenzyl)-1H-indazol-3-amine]
- pEC50 [1]: 5.85
- pEC50 [2]: < 5.00
- Ki [3, 4]: 0.015 µM

SMILES: NC(=O)N(Cc1ccccc1)c1n[nH]c2ccc(-c3nnn(Cc4ccccc4)c3C3CC3)cc12 [Example 262, N-benzyl-N-[5-(1-benzyl-5-cyclopropyl-1H-1,2,3-triazol-4-yl)-1H-indazol-3-yl]urea]
- pEC50 [1]: 5.47
- pEC50 [2]: < 5.00
- Ki [3, 4]: 0.041 µM

SMILES: NC(=O)N(c1ccccc1Cl)c1n[nH]c2ccc(-c3nnn(Cc4ccccc4)c3C3CC3)cc12 [Example 263, N-[5-(1-benzyl-5-cyclopropyl-1H-1,2,3-triazol-4-yl)-1H-indazol-3-yl]-N-(2-chlorophenyl)urea]
- pEC50 [1]: 5.99
- pEC50 [2]: < 5.00
- Ki [3, 4]: 0.022 µM

SMILES: CCCN(C(N)=O)c1n[nH]c2ccc(-c3cn(Cc4ccccc4)nn3)cc12 [Example 319, N-[5-(1-benzyl-1H-1,2,3-triazol-4-yl)-1H-indazol-3-yl]-N-propylurea]
- pEC50 [1]: 5.81
- pEC50 [2]: < 5.00
- Ki [3, 4]: 0.068 µM

SMILES: CCNC(=O)Nc1n[nH]c2ccc(-c3cn(Cc4ccccc4)nn3)cc12 [Example 322, N-[5-(1-benzyl-1H-1,2,3-triazol-4-yl)-1H-indazol-3-yl]-N′-ethylurea]
- pEC50 [1]: 5.82
- pEC50 [2]: < 5.00
- Ki [3, 4]: 0.034 µM

SMILES: O=C(Nc1n[nH]c2ccc(-c3cn(Cc4ccccc4)nn3)cc12)c1cccc(F)c1 [Example 395, N-[5-(1-benzyl-1H-1,2,3-triazol-4-yl)-1H-indazol-3-yl]-3-fluorobenzamide]
- pEC50 [1]: 6.50
- pEC50 [2]: 5.52

SMILES: COC(=O)c1n[nH]c2ccc(-c3cn(Cc4ccccc4)nn3)cc12 [Example 397, methyl 5-(1-benzyl-1H-1,2,3-triazol-4-yl)-1H-indazole-3-carboxylate]
- pEC50 [1]: 4.61
- Ki [3, 4]: 0.0811 µM

SMILES: c1ccc(Cn2cc(-c3ccc4[nH]nc(-c5cccs5)c4c3)nn2)cc1 [Example 401, 5-(1-benzyl-1H-1,2,3-triazol-4-yl)-3-thien-2-yl-1H-indazole]
- pEC50 [1]: 5.17
- pEC50 [2]: < 5.00
- Ki [3, 4]: 0.00492 µM

SMILES: Nc1n[nH]c2ccc(-c3nnn(Cc4ccccc4)c3C3CCCCC3)cc12 [Example 402, 5-(1-benzyl-5-cyclohexyl-1H-1,2,3-triazol-4-yl)-1H-indazol-3-amine]
- pEC50 [1]: 7.43
- Ki [3, 4]: 0.037 µM

SMILES: Nc1n[nH]c2ccc(-c3nnn(Cc4ccccc4)c3CC3CCCCC3)cc12 [Example 403, 5-[1-benzyl-5-(cyclohexylmethyl)-1H-1,2,3-triazol-4-yl]-1H-indazol-3-amine]
- pEC50 [1]: 8.10
- pEC50 [2]: < 5.00
- Ki [3, 4]: 0.0082 µM

SMILES: Cc1n[nH]c2ccc(-c3nnn(Cc4ccccc4)c3-c3ccc(F)cc3)cc12 [Example 408, 5-[1-benzyl-5-(4-fluorophenyl)-1H-1,2,3-triazol-4-yl]-3-methyl-1H-indazole]
- pEC50 [1]: < 4.52
- pEC50 [2]: 5.71
